Data: patent publication US20100179188A1, “NITROXIDE RADICAL AS TREATMENT FOR NEURODEGENERATION” (Office of Technology Transfer, NIH, priority 2007, published 2010)

Tests used:
[1] = molecular target: T1, cytosolic aconitase (Mus musculus, UniProt P28271); assay: In-gel aconitase assay in mouse embryonic fibroblast lysates, cytosolic aconitase; type: cell-based; conditions: assessed 8 hours after removal; mouse embryonic fibroblasts treated 16 hours
T1 construct: Embryonic fibroblasts of 13-day old embryos were isolated from wild type, IRP1−/− mice and IRP2−/− mice; endogenous in cells; host or cells: mouse embryonic fibroblasts (wild type and IRP2−/−)
T1 sequence (P28271 1-889): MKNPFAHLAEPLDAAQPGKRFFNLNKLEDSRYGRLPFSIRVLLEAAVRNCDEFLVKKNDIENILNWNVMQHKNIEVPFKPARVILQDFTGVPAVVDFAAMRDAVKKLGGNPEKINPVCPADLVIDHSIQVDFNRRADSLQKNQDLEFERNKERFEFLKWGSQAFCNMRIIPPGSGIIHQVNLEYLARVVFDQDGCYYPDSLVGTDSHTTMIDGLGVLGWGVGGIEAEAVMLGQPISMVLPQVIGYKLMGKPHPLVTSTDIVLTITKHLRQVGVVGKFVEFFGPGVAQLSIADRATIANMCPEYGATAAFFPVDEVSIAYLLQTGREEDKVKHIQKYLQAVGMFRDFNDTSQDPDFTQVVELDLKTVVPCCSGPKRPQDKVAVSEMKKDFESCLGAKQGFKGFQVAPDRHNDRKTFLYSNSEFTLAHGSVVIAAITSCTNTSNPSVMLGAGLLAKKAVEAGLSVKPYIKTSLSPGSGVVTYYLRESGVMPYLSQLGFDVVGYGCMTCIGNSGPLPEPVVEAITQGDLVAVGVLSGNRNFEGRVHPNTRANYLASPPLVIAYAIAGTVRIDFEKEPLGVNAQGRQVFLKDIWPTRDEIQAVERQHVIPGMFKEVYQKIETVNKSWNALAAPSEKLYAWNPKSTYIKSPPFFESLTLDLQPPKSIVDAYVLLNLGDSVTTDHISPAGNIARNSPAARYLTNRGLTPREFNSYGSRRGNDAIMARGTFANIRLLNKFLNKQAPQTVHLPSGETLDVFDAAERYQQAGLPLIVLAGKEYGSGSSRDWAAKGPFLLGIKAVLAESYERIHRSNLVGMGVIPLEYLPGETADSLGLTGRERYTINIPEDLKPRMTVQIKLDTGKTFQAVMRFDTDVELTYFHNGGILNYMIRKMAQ
Procedure: (§1) Cells: Embryonic fibroblasts of 13-day old embryos were isolated from wild type, IRP1−/− mice and IRP2−/− mice as described in LaVaute et al. supra. Myc-tagged HEK 293 Tet-on cell line, in which IRP2 expression was inducible, was prepared and cultured as described Bourdon et al., Blood Cells Mol Dis, 31, 247-255 (2003). Erythroblasts were harvested from bone marrow and purified as described in Cooperman et al., Blood, 106, 1084-1091 (2005).
Aconitase assay: Aconitase activity gels for human lysates were performed as described in Tong et al., infra, and aconitase activity gels for mouse lysate were performed with the following modifications. The gel was composed of a separating gel containing 6% acrylamide, 132 mM Tris base, 66 mM borate, 3.6 mM citrate, and a stacking gel containing 4% acrylamide, 66 mM Tris base, 33 mM borate, 3.6 mM citrate. The running buffer contains 25 mM Tris pH 8.3, 96 mM glycine, and 3.6 mM citrate. Electrophoresis were carried out at 170 V at 4° C. Spectral aconitase activity was measured by following the method of Fillebeen et al., infra, using cis-aconitate as the substrate.
To confirm that nitroxide radicals activate IRP1 binding by disassembly of the iron-sulfur cluster, we performed in-gel aconitase assays to determine whether Tempo1 decreased the activity of cytosolic aconitase. […] The band that represented the cytosolic aconitase was readily identified by its absence in lysates from IRP1−/− cells. […]
(§2) To determine whether the effect of Tempo1 on IRP1 activity was kinetically consistent with oxidative disassembly of the iron sulfur cluster, the effect of Tempo1 on aconitase activity was compared to that of the iron chelator, deferiprone (DFO), which activates IRE-binding activity of IRP1 by limiting de novo synthesis and repair of the iron sulfur cluster in IRP1. […] Recovery of aconitase activity was assessed in wild type and IRP2−/− cells.

[2] = molecular target: T2, IRP1 (Mus musculus, UniProt P28271); assay: Gel-shift of IRP1 in wild type and IRP2−/− mouse embryonic fibroblasts after Tempo1 or DFO and washout; type: cell-based; design: Embryonic fibroblasts of 13-day old embryos were isolated from wild type, IRP1−/− mice and IRP2−/− mice; endogenous in cells; host or cells: mouse embryonic fibroblasts (wild type and IRP2−/−); conditions: wild type and IRP2−/− mouse embryonic fibroblasts treated 16 hours
T2 sequence (P28271 1-889): T1 sequence (P28271 1-889)
Procedure: as §1
(§3) RNA mobility shift assays: Gel retardation assays were performed as described in Meyron-Holtz et al., EMBO J, 23, 386-395 (2004). Tissue lysates were prepared in an anaerobic chamber as described above in oxygen-depleted lysis buffer containing 10 mM HEPES (pH 7.2), 3 mM MgC12, 40 mM KCl, 5% glycerol, 0.2% Nonidet P-40, 5 mM DTT, 1 mM AEBSF, 10 μg/ml. Leupeptin and complete TM EDTA free protease inhibitor cocktail (Roche Applied Science, Indiana). Lysate (x μl) containing 10 μg of total protein was added to (12.5−x) μl of bandshift buffer containing 25 mM Tris-HCl (pH 7.5) and 40 mM KCl. The samples were incubated for 5 min at room temperature (RT) with 12.5 μl of a reaction cocktail containing 20% glycerol, 0.2 U/μl Super RNAsine (Ambion, Tex.), 0.6 μg/μl yeast t-RNA, 5 mM DTT and 20 nM 32P-labelled IRE from human ferritin H-chain gene in 25 mM Tris-HCl (pH 7.5) and 40 mM KCl. A measure of 20 μl of this reaction mixture was loaded into a 10% acrylamide/TBE gel, which was run at 200 V for 2.15 h, and then the gel was fixed, dried and exposed for autoradiography.
as §2

[3] = molecular target: T2, IRP1; assay: Gel-shift of erythroblasts treated with β-mercaptoethanol; type: biochemical; design: Lysates made from various brain regions of IRP2−/− mice; from tissue; host or cells: mouse brain (cerebellum, forebrain, brain-stem) lysates; conditions: erythroblasts from wild type mice, high concentrations
Procedure: as §1
as §3, with “A measure of 20 μl of this reaction mixture was loaded into a 10% acrylamide/TBE gel, which was run at 200 V for 2.15 h, and then the gel was fixed, dried and exposed for autoradiography.” left out

[4] = molecular target: T2, IRP1; assay: Gel-shift of brain lysates treated with β-mercaptoethanol; type: biochemical, mice; design: Lysates made from various brain regions of IRP2−/− mice; from tissue; host or cells: mouse brain (cerebellum, forebrain, brain-stem) lysates; conditions: FIG. 7a
Procedure: Tissue and lysate preparation: Animals were euthanized and tissues were frozen in liquid nitrogen immediately after harvesting, and stored at −80° C. under argon. Experiments were performed on tissues that were pulverized in liquid N2-cooled mortars in an anaerobic chamber, and then lysed in lysis buffer that was deaerated by cyclic freezethaw and air-removal with argon. Nuclei and debris were removed by centrifugation. Preparations of lysates for assays of IRP1 activity, western blotting, carbonyl assay and protein analysis were performed anaerobically.
RNA mobility shift assays: Gel retardation assays were performed as described in Meyron-Holtz et al., EMBO J, 23, 386-395 (2004). Tissue lysates were prepared in an anaerobic chamber as described above in oxygen-depleted lysis buffer containing 10 mM HEPES (pH 7.2), 3 mM MgC12, 40 mM KCl, 5% glycerol, 0.2% Nonidet P-40, 5 mM DTT, 1 mM AEBSF, 10 μg/ml. Leupeptin and complete TM EDTA free protease inhibitor cocktail (Roche Applied Science, Indiana). Lysate (x μl) containing 10 μg of total protein was added to (12.5−x) μl of bandshift buffer containing 25 mM Tris-HCl (pH 7.5) and 40 mM KCl. […]

In the case of `Cc1c(O)c(=O)ccn1C` [DFO, deferiprone, reference compound], the “recovery of cytosolic aconitase activity” value [1] is reported as “little recovery” and the “IRE-binding activity of IRP1” value [2] is reported as “activated”.
`OCCS` [β-mercaptoethanol] was tested, and the “additional IRE binding activity of IRP1” value [3] was “did not activate additional” and the “IRE binding activity recruited” value [4] was “significant increases”.
